{"source": "patent US20230382915A1", "about": "“GCN2 AND PERK KINASE INHIBITORS AND METHODS OF USE THEREOF” (Deciphera Pharmaceuticals, LLC, priority 2021, published 2023)", "assay_type_in_all_cases": "cell-based", "key": {"[1]": {"test_system": "ATF4 in thapsigargin stimulated CCRF-CEM cells (PERK)", "assay": "CCRF-CEM thapsigargin (TG) ATF4 ELISA", "settings": "Homo sapiens, 1 μM thapsigargin", "protocol": "CCRF-CEM leukemia cells (catalog #CCL-116) were obtained from the American Type Culture Collection (ATTC, Manassas, VA). Briefly, cells were grown in RPMI-1640 medium supplemented with 10% heat-inactivated fetal bovine serum (Invitrogen, Carlsbad, CA) and 1% Penicillin/Streptomycin/L-Glutamine at 37° C., 5% CO2, and 95% humidity. Cells were expanded until reaching one million cells per mL at which time they were subcultured or harvested for assay use. One million five hundred thousand cells per well in 1 mL complete growth medium were dispensed into 12-well plates and incubated overnight. A serial dilution of test compound was added and cells were incubated at 37° C., 5% CO2, and 95% for three hours, then 1 μM thapsigargin was added and cells were incubated for an additional hour at 37° C., 5% CO2, and 95%. Cells were lysed then ATF4 levels were measured using an ELISA assay (Proteintech, Rosemont, IL). Absorbance was measured at 450 nm and 544 nM using a Synergy2 or equivalent reader (Biotek, Winooski VT). Data was analyzed using PRISM software (Graphpad, San Diego, CA) to calculate IC50 values."}, "[2]": {"test_system": "ATF4 target genes in H929 multiple myeloma cells", "assay": "H929 UPR/ISR target genes quantitative RT-PCR", "protocol": "H929 multiple myeloma cells (catalog #CRL-9068) multiple myeloma cells were obtained from the American Type Culture Collection (ATTC, Manassas, VA). Cells were grown in RPMI-1640 medium supplemented with 20% heat-inactivated fetal bovine serum (catalog #A3840002, ThermoFisher Scientific, Waltham, MA), 1% Penicillin/Streptomycin/L-Glutamine (catalog #10378016, ThermoFisher Scientific, Waltham, MA), and 0.05 mM 2-mercaptoethanol (catalog #21985-023, ThermoFisher Scientific, Waltham, MA) at 37° C., 5% CO2, and 95% humidity. Cells were expanded until reaching 70-95% confluency at which point they were subcultured or harvested for assay use. Cells were seeded in 6-well culture plate at 3.0×10^6 cells per well in 2 mL complete growth medium and incubated with indicated concentrations of Compound 2 at 37° C., 5% CO2, and 95% humidity for 4 h. At the end of the incubation, cells were washed with PBS (Sigma) and RNA was extracted using RNeasy® Plus Kits (Qiagen, Germantown, MD). cDNA was synthesized using the High-Capacity cDNA Reverse Transcription Kit (Applied Biosciences, Beverly Hills, CA), and quantitative PCR was performed on a QuantStudio 3 (Applied Biosciences) using TaqMan Assays (Table 1, Thermo) and TaqMan Fast Advanced Master Mix (Thermo) according to manufacturer's specifications."}, "[3]": {"test_system": "HT-1080 solid tumor spheroids", "assay": "Spheroid proliferation assay, HT-1080", "settings": "Homo sapiens, HT-1080, 120 h; 5 days, FIG. 11C; read-out: inhibition of cell proliferation IC50, single agent", "protocol": "Non Small Cell Lung Cancer (NSCLC) cell lines H358 (catalog #CRL-5807) and H2030 (catalog #CRL-5914), and fibrosarcoma line HT-1080 (catalog […]) were obtained from the American Type Culture Collect (ATTC, Manassas, VA). Cells were grown in RPMI-1640 medium supplemented with 10% heat-inactivated fetal bovine serum and 1% Penicillin/Streptomycin/L-Glutamine (Invitrogen, Carlsbad, CA) at 37° C., 5% CO2, and 95% humidity and maintained at 50-80% confluency until use. 500-1000 cells were plated in 96-well ultra-low attachment plates (Corning, Glendale, AZ) with complete growth media at 80 μL/well and incubated overnight at 37° C., 5% CO2, and 95% humidity to form spheroids. The next day, serial dilutions of test compounds were prepared in complete growth media and 20 μL/well media containing compound titers was added to spheroids in triplicate. Spheroids were then incubated with test compounds for 5 days under the same conditions. At the end of the incubation, spheroids were lysed with 100 μL/well CellTiter-Glo 3D Viability Assay (Promega, Madison, WI) and luminescence was detected using Synergy2 or equivalent reader (Biotek, Winooski, VT). Data was analyzed using GraphPad Prism software (GraphPad, San Diego, CA) to calculate IC50 values."}, "[4]": {"biological_target": "PERK oligomers (HEK-293 cells) (Homo sapiens (Human), UniProt Q9NZJ5)", "assay": "Detection of PERK oligomerization using NanoBRET", "settings": "HEK-293, 4 h, FIG. 2; read-out: stimulation of the formation of PERK oligomers EC50", "protocol": "Constructs for BRET were built using the NanoBRET™ Flexi® PPI Starter System (Promega, Madison, WI). The full-length PERK ORF was obtained from Genscript (Piscataway, NJ). HEK-293 cells (catalog #CRL-1573) were obtained from the American Type Culture Collection (ATTC, Manassas, VA). Cells were grown in MEM medium supplemented with 10% heat-inactivated fetal bovine serum (Invitrogen, Carlsbad, CA) and 1% Penicillin/Streptomycin/L-Glutamine at 37° C., 5% CO2, and 95% humidity. For BRET assays, cells were seeded at a density of 40,000 cells/mL in culture medium in 6-well plates and allowed to attach and recover. Cells were transfected with C-terminally tagged PERK-NLuc and C-terminally tagged PERK-Halo using Lipofectamine LTX (Thermo, Waltham, MA) and allowed to express proteins overnight at 37° C., 5% CO2, and 95% humidity. Cells were then detached from culture dishes using 0.05% trypsin-EDTA, collected, and diluted in assay medium consisting of Opti-MEM® I Reduced Serum Medium supplemented with 4% FBS (Thermo) to 22,000 cells/mL. Cells were dispensed into 96-well cell culture plates and HaloTag® NanoBRET™ 618 Ligand (Promega) was added to a final concentration of 100 nM. […] Donor ([…]) and acceptor (618) emissions were measured on a Synergy Neo2 Multi-Mode Reader (BioTek, Winooski, VT) within 10 min of substrate addition. […]"}}, "data": [{"smiles": "Cn1cc(-c2cccc(NS(=O)(=O)c3cc(Cl)cc(CO)c3Cl)c2F)c2c(N)ncnc21", "note": "[Example 2, N-(3-(4-amino-7-methyl-7H-pyrrolo[2,3-d]pyrimidin-5-yl)-2-fluorophenyl)-2,5-dichloro-3-(hydroxymethyl)benzenesulfonamide]", "values": [{"measurement": "IC50", "setting": "[1]", "result": "≤ 100", "unit": "nM"}, {"measurement": "maximum stimulation for ATF4 (gene expression)", "setting": "[2]; 4 h, fold change over DMSO", "result": "~3", "unit": "folds"}, {"measurement": "maximum stimulation for CHOP (gene expression)", "setting": "[2]; 4 h, fold change over DMSO", "result": "~10", "unit": "folds"}, {"measurement": "maximum stimulation for GADD34 (gene expression)", "setting": "[2]; 4 h, fold change over DMSO", "result": "~3", "unit": "folds"}, {"measurement": "maximum stimulation for GPT2 (gene expression)", "setting": "[2]; 4 h, fold change over DMSO", "result": "~3"}, {"measurement": "maximum stimulation for VEGFA (gene expression)", "setting": "[2]; 4 h, fold change over DMSO", "result": "~2", "unit": "folds"}, {"measurement": "concentrations at which ATF4 target gene expression reverted to basal levels", "setting": "[2]; FIG. 4, inhibitory phase", "result": "≥ 370", "unit": "nM"}, {"measurement": "IC50", "setting": "[3]", "result": 12, "unit": "nM"}, {"measurement": "EC50", "setting": "[4]", "result": 1.6, "unit": "nM"}]}]}
